Data: patent publication US20230233569A1 (Revolution Medicines, Inc., priority 2020, published 2023)
Several values for one entry are separate records, joined by “and”; a condition that tells them apart may be missing. Identical values can stand only once. Like-named read-outs stand apart in the source and are kept apart here.

Assays:
NRAS G12C = NRAS G12C (Homo sapiens, UniProt P01111+P62937, G12C); experiment: Disruption of BRAF RBD interaction with Ras (FRET / MOA assay, with Cyclophilin A); assay type: biochemical
KRAS G13D = KRAS G13D (Homo sapiens, UniProt P01116+P62937, G13D); experiment: as above; assay type: biochemical
How it was run: (§1)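 Cyclophilin A-dependent ternary complex assay. K-Ras loaded with nucleotide; BRAF RBD as effector. Cpd top 30 μM final, 3 h at 25 °C. Readout: TR-FRET ratio, IC50.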

KRAS G12S = KRAS G12S (Homo sapiens, UniProt P01116+P62937, G12S); experiment: as above; assay type: biochemical
How it was run: as §1

KRAS G12C = KRAS G12C (Homo sapiens, UniProt P01116+P62937, G12C); experiment: as above; assay type: biochemical
How it was run: as §1

KRAS G12D = KRAS G12D (Homo sapiens, UniProt P01116+P62937, G12D); experiment: as above; assay type: biochemical
How it was run: as §1

KRAS WT = KRAS WT (Homo sapiens, UniProt P01116+P62937); experiment: as above; assay type: biochemical
How it was run: as §1

KRAS G12V = KRAS G12V (Homo sapiens, UniProt P01116+P62937, G12V); experiment: as above; assay type: biochemical
How it was run: as §1

KRAS G13C = KRAS G13C (Homo sapiens, UniProt P01116+P62937, G13C); experiment: as above; assay type: biochemical
How it was run: as §1

NCI-H358 (K-Ras G12C) = experiment: CellTiter-Glo cell viability assay, 5-day treatment; assay type: cell-based; conditions: Homo sapiens, NCI-H358, H358, K-Ras G12C; read-out: Additional H358 Cell Viability assay data (K-Ras G12C, IC50)
How it was run: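 Luminescence read-out after 5 days of compound exposure, with plates first brought to room temperature for roughly 30 minutes. Values are percent of averaged DMSO wells, fitted by four-parameter logistic regression.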

[1] = test system: K-Ras G12C (NCI-H358 cells); experiment: Potency assay: pERK (AlphaLISA SureFire or In-Cell Western); assay type: cell-based; conditions: Homo sapiens
Protocol: (§2) The purpose of this assay is to measure the ability of test compounds to inhibit K-Ras in cells. […] This procedure measures a decrease in cellular pERK in response to test compounds.
(§3) NCI-H358 cells were grown and maintained using media and procedures recommended by the ATCC. On the day prior to compound addition, cells were plated in 384-well cell culture plates (40 μl/well) and grown overnight in a 37° C., 5% CO2 incubator. Test compounds were prepared in 10, 3-fold dilutions in DMSO, with a high concentration of 10 mM. On the day of assay, 40 nL of test compound was added to each well of cell culture plate using an Echo550 liquid handler (LabCyte®). Concentrations of test compound were tested in duplicate. After compound addition, cells were incubated 4 hours at 37° C., 5% CO2. Following incubation, culture medium was removed and cells were washed once with phosphate buffered saline.
(§4) In some experiments, cellular pERK level was determined using the AlphaLISA SureFire Ultra p-ERK1/2 Assay Kit (PerkinElmer). Cells were lysed in 25 μL lysis buffer, with shaking at 600 RPM at room temperature. […] After a 2-hour incubation in the dark, 5 μL donor mix was added, plate was sealed, and incubated 2 hours at room temperature. Signal was read on an Envision plate reader (PerkinElmer) using standard AlphaLISA settings. Analysis of raw data was carried out in Excel (Microsoft) and Prism (GraphPad). Signal was plotted vs. the decadal logarithm of compound concentration, and IC50 was determined by fitting a 4-parameter sigmoidal concentration response model.
In other experiments, cellular pERK was determined by In-Cell Western. […] Fixed cells were washed 4 times for 5 minutes with TBS containing 0.1% Triton X-100 (TBST) and then blocked with 100 μL Odyssey blocking buffer (LI-COR) for 60 minutes at room temperature. […] Cells were washed 4 times for 5 minutes with TBST. Secondary antibody (IR-800CW rabbit, LI-COR, diluted 1:800) and DNA stain DRAQ5 (LI-COR, diluted 1:2000) were added and incubated 1-2 hours at room temperature. Cells were washed 4 times for 5 minutes with TBST. Plates were scanned on a LI-COR Odyssey CLx Imager. Analysis of raw data was carried out in Excel (Microsoft) and Prism (GraphPad). Signal was plotted vs. the decadal logarithm of compound concentration, and IC50 was determined by fitting a 4-parameter sigmoidal concentration response model.
as §2
as §3, with “mM. On day of” for “mM. On the day of”, “assay, 40 nl of test” for “assay, 40 nL of test”
as §4, with “μl” for “μL”, “sealed” for “sealed,”

[2] = NRAS G12C, read-out: NRAS G12C FRET data IC50
[3] = KRAS G13D, read-out: KRAS G13D FRET data IC50
[4] = read-out: KRAS G12S FRET data, IC50
[5] = KRAS G12C, read-out: KRAS G12C FRET data IC50
[6] = read-out: KRAS G12D FRET data, IC50
[7] = KRAS WT, read-out: KRAS WT FRET data IC50
[8] = KRAS G12V, read-out: KRAS G12V FRET data IC50
[9] = KRAS G13C, read-out: KRAS G13C FRET data IC50
[10] = NCI-H358, H358 KRAS G12C, read-out: pERK EC50

Chain of KRAS G13D (P01116 1-169 isoform P01116-2 G13D limits assumed): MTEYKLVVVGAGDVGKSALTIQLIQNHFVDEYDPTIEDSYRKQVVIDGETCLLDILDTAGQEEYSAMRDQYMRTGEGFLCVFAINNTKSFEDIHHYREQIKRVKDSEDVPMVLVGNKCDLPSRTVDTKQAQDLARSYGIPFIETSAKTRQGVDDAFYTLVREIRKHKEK
Chain of KRAS G13D (P62937 whole entry): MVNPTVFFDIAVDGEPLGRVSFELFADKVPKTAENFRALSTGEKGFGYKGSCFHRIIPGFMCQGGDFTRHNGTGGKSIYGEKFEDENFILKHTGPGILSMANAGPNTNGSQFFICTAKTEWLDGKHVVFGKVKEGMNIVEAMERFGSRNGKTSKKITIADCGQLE
Chain of NRAS G12C (P01111 whole entry G12C): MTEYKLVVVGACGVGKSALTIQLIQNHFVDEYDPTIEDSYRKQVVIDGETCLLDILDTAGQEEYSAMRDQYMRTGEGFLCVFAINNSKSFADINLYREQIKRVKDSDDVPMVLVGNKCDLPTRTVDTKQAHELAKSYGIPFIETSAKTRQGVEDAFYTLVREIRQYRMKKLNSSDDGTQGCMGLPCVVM
Chain of NRAS G12C (P62937 whole entry): as the sequence (P62937 whole entry) above
Chain of KRAS G12V (P01116 1-169 isoform P01116-2 G12V limits assumed): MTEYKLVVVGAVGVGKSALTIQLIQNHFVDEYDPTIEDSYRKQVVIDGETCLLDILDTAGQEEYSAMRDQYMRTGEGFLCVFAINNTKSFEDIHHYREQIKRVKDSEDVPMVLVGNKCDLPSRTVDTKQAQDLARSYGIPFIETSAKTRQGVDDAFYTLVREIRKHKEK
Chain of KRAS G12V (P62937 whole entry): as the sequence (P62937 whole entry) above
Chain of KRAS G12C (P01116 1-169 isoform P01116-2 G12C): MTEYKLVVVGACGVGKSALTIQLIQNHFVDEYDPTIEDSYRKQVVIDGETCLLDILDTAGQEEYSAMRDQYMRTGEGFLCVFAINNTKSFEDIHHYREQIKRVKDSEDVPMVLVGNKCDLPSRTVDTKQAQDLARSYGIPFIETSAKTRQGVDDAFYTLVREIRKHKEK
Chain of KRAS G12C (P62937 whole entry): as the sequence (P62937 whole entry) above
Chain of KRAS G12D (P01116 1-169 isoform P01116-2 G12D limits assumed): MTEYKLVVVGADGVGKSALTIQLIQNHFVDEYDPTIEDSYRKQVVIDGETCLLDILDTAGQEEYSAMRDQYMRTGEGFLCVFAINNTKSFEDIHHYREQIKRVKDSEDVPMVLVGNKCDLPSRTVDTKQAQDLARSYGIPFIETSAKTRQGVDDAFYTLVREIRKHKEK
Chain of KRAS G12D (P62937 whole entry): as the sequence (P62937 whole entry) above
Chain of KRAS G12S (P01116 1-169 isoform P01116-2 G12S limits assumed): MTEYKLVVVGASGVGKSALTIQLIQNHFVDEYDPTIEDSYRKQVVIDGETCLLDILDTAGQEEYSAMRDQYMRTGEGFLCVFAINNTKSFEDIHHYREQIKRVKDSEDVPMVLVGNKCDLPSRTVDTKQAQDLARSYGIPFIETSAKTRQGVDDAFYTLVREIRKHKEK
Chain of KRAS G12S (P62937 whole entry): as the sequence (P62937 whole entry) above
Chain of KRAS WT (P01116 1-169 isoform P01116-2 limits assumed): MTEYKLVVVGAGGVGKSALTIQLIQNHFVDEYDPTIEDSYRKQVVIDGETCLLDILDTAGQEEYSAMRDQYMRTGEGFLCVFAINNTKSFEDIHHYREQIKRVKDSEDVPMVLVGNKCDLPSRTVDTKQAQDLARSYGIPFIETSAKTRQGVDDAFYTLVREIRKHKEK
Chain of KRAS WT (P62937 whole entry): as the sequence (P62937 whole entry) above
Chain of KRAS G13C (P01116 1-169 isoform P01116-2 G13C): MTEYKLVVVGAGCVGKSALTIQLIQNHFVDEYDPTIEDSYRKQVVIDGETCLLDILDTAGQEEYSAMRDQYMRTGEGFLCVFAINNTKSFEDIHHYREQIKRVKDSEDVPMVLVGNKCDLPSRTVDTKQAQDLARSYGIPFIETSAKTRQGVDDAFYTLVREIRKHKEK
Chain of KRAS G13C (P62937 whole entry): as the sequence (P62937 whole entry) above

SMILES	IC50 (NRAS G12C; [2])	IC50 (KRAS G13D; [3])	IC50 (KRAS G12S; [4])	IC50 (KRAS G12C; [5])	IC50 (KRAS G12D; [6])	IC50 (KRAS WT; [7])	IC50 (KRAS G12V; [8])	IC50 (KRAS G13C; [9])	IC50 (NCI-H358 (K-Ras G12C)) [nM]	EC50 [1, 10] [nM]	IC50 (NRAS G12C; NRAS G12C FRET data IC50, NRAS G12C) [nM]	IC50 (KRAS G13D; KRAS G13D FRET data IC50, KRAS G13D) [nM]	IC50 (KRAS G12S; KRAS G12S FRET data, IC50) [nM]	IC50 (KRAS G12C; KRAS G12C FRET data IC50, KRAS G12C) [nM]	IC50 (KRAS G12D; KRAS G12D FRET data, IC50) [nM]	IC50 (KRAS WT; KRAS WT FRET data IC50, KRAS WT) [nM]	IC50 (KRAS G12V; KRAS G12V FRET data IC50, KRAS G12V) [nM]	IC50 (KRAS G13C; KRAS G13C FRET data IC50, KRAS G13C) [nM]	EC50 ([1]; NCI-H358, read-out: pERK EC50) [nM]
CCn1c(-c2cccnc2COC)c2c3cc(ccc31)-c1cc(O)cc(c1)C[C@H](NC(=O)[C@H](C(C)C)N(C)C(=O)[C@H]1CCN(C(=O)C#CC(C)(C)N(C)C)C1)C(=O)N1CCC[C@H](N1)C(=O)OCC(C)(C)C2 [Example A162]	< 10 nM	1000 to 10000 nM	1000 to 10000 nM	< 10 nM	1000 to 10000 nM	1000 to 10000 nM	100 to 1000 nM	100 to 1000 nM	< 10	< 5000	–	–	–	–	–	–	–	–	–
CCn1c(-c2cccnc2COC)c2c3cc(ccc31)-c1cc(O)cc(c1)C[C@H](NC(=O)[C@H](C(C)C)N(C)C(=O)[C@H]1CCN(C(=O)/C=C\CN(C)C)C1)C(=O)N1CCC[C@H](N1)C(=O)OCC(C)(C)C2 [Example A164]	10 to 100 nM	100 to 1000 nM	100 to 1000 nM	10 to 100 nM	1000 to 10000 nM	100 to 1000 nM	100 to 1000 nM	100 to 1000 nM	100 to 1000	< 5000	–	–	–	–	–	–	–	–	–
C=CC(=O)N1CC(NC[C@H](C(=O)N[C@H]2Cc3cc(O)cc(c3)-c3ccc4c(c3)c(c(-c3cccnc3COC)n4CC)CC(C)(C)COC(=O)[C@@H]3CCCN(N3)C2=O)C(C)C)C1 [Example A174]	1000 to 10000 nM	> 10000 nM	> 10000 nM	100 to 1000 nM	> 10000 nM	> 10000 nM	> 10000 nM	1000 to 10000 nM	> 1000	< 5000	–	–	–	–	–	–	–	–	–
CCn1c(-c2cccnc2[C@H](C)OC)c2c3cc(ccc31)-c1cc(O)cc(c1)C[C@H](NC(=O)[C@H](C(C)C)N(C)C(=O)[C@H]1CCN(C(=O)C#CCN3CCOCC3)C1)C(=O)N1CCC[C@H](N1)C(=O)OCC(C)(C)C2 [Example A182]	10 to 100 nM and < 10 nM	100 to 1000 nM and 1000 to 10000 nM	100 to 1000 nM and 1000 to 10000 nM	10 to 100 nM and < 10 nM	1000 to 10000 nM and > 10000 nM	100 to 1000 nM and 1000 to 10000 nM	100 to 1000 nM and 1000 to 10000 nM	1000 to 10000 nM and 10 to 100 nM	10 to 100	< 5000	–	–	–	–	–	–	–	–	–
C=CC(=O)N1CC[C@H](C(=O)N(C)[C@H](C(=O)N[C@H]2Cc3cc(O)cc(c3)-c3ccc4c(c3)c(c(-c3cccnc3[C@H](C)OC)n4C)CC(C)(C)COC(=O)[C@@H]3CCCN(N3)C2=O)C(C)C)C1 [Example A197]	100 to 1000 nM	1000 to 10000 nM	1000 to 10000 nM	100 to 1000 nM	> 10000 nM	1000 to 10000 nM	1000 to 10000 nM	1000 to 10000 nM	10 to 100	< 5000	–	–	–	–	–	–	–	–	–
CCn1c(-c2cccnc2COC)c2c3cc(ccc31)-c1cc(O)cc(c1)C[C@H](NC(=O)[C@@H](C(C)C)N(C)C(=O)[C@H]1CCN(C(=O)C#CC(C)N3CCOCC3)C1)C(=O)N1CCC[C@H](N1)C(=O)OCC(C)(C)C2 (some centres unmarked) [Example A200]	10 to 100 nM	> 10000 nM	> 10000 nM	10 to 100 nM	> 10000 nM	> 10000 nM	> 10000 nM	1000 to 10000 nM	100 to 1000	< 5000	–	–	–	–	–	–	–	–	–
CCn1c(-c2cccnc2[C@H](C)OC)c2c3cc(ccc31)-c1cc(sn1)C[C@H](NC(=O)[C@H](C(C)C)N(C)C(=O)[C@@H]1CCN(C(=O)C#CCN3CCOCC3)C1)C(=O)N1CCC[C@H](N1)C(=O)OCC(C)(C)C2 [Example A201]	100 to 1000 nM	> 10000 nM	> 10000 nM	10 to 100 nM	> 10000 nM	> 10000 nM	> 10000 nM	1000 to 10000 nM	10 to 100	< 5000	–	–	–	–	–	–	–	–	–
CCn1c(-c2cccnc2[C@H](C)OC)c2c3cc(ccc31)-c1cc(O)cc(c1)C[C@H](NC(=O)[C@H](C(C)C)N(C)C(=O)c1nc(NC(=O)/C=C/CN(C)C)cs1)C(=O)N1CCC[C@H](N1)C(=O)OCC(C)(C)C2 [Example A258]	100 to 1000 nM	100 to 1000 nM and 1000 to 10000 nM	1000 to 10000 nM	100 to 1000 nM	1000 to 10000 nM and > 10000 nM	100 to 1000 nM and 1000 to 10000 nM	100 to 1000 nM and 1000 to 10000 nM	< 10 nM and 10 to 100 nM	100 to 1000	< 5000	–	–	–	–	–	–	–	–	–
CCn1c(-c2cccnc2[C@H](C)OC)c2c3cc(ccc31)-c1csc(n1)C[C@H](NC(=O)[C@H](C(C)C)N(C)C(=O)[C@H]1CCN(C(=O)/C=C/CN(C)C)C1)C(=O)N1CCC[C@H](N1)C(=O)OCC(C)(C)C2 [Example A282]	100 to 1000 nM	1000 to 10000 nM	1000 to 10000 nM	100 to 1000 nM	1000 to 10000 nM	1000 to 10000 nM	1000 to 10000 nM	1000 to 10000 nM	10 to 100	< 5000	–	–	–	–	–	–	–	–	–
C=CC(=O)N1CC[C@H](C(=O)N(C)[C@H](C(=O)N[C@H]2Cc3cccc(c3)-c3ccc4c(c3)c(c(-c3cccnc3[C@H](C)OC)n4CC)CC(C)(C)COC(=O)[C@@H]3CCCN(O3)C2=O)C(C)C)C1 [Example A284]	–	–	–	–	–	–	–	–	100 to 1000	–	1000 to 10000	> 10000	> 10000	100 to 1000	> 10000	> 10000	> 10000	1000 to 10000	< 5000
CC#C[S+]([O-])N1CC[C@H](C(=O)N(C)[C@H](C(=O)N[C@H]2Cc3cccc(c3)-c3ccc4c(c3)c(c(-c3cccnc3[C@H](C)OC)n4CC)CC(C)(C)COC(=O)[C@@H]3CCCN(N3)C2=O)C2CCCC2)C1 (some centres unmarked) [Example A310]	100 to 1000 nM	> 10000 nM	1000 to 10000 nM	100 to 1000 nM	> 10000 nM	1000 to 10000 nM	1000 to 10000 nM	1000 to 10000 nM	10 to 100	< 5000	–	–	–	–	–	–	–	–	–
